Measurements taken from ChEMBL document CHEMBL4118193, “1,2,3,4,6-Penta-O-galloyl-β-d-glucose suppresses colon cancer through induction of tumor suppressor” (Bioorg Med Chem Lett, 2018).
Activity calls are given as the source filed them. The rule behind the calls is not given here.

Experiments:
HT-29 [1] = experiment: Antiproliferative activity against human HT-29 cells at 1 to 10 uM after 48 hrs by CytoTox-96 non-radioactive assay; type: functional, cell-based
CCD-18Co = experiment: Cytotoxicity against human CCD-18Co cells at 1 to 10 uM after 48 hrs by CytoTox-96 non-radioactive assay; type: cell-based
HCT-116 [2] = experiment: Cell cycle arrest in human HCT116 cells assessed as accumulation at G0/G1 phase at 1 uM after 48 hrs (reference value: 38.5%); type: functional
HCT-116 [3] = experiment: Cell cycle arrest in human HCT116 cells assessed as accumulation at S phase at 5 uM after 48 hrs (reference value: 10.9%); type: functional
HCT-116 [4] = experiment: Cell cycle arrest in human HCT116 cells assessed as accumulation at S phase at 10 uM after 48 hrs (reference value: 10.9%); type: functional
HCT-116 [5] = experiment: Cell cycle arrest in human HCT116 cells assessed as accumulation at G2/M phase at 5 uM after 48 hrs (reference value: 21.5%); type: functional
HT-29 [6] = experiment: Cell cycle arrest in human HT-29 cells assessed as accumulation at S phase at 10 uM after 48 hrs (reference value: 9.7%); type: functional
HT-29 [7] = experiment: Cell cycle arrest in human HT-29 cells assessed as accumulation at G2/M phase at 5 uM after 48 hrs (reference value: 14.7%); type: functional
HCT-116 [8] = experiment: Cell cycle arrest in human HCT116 cells assessed as accumulation at subG1 phase after 48 hrs; type: functional, cell-based
HCT-116 [9] = experiment: Induction of apoptosis in human HCT116 cells assessed as live cells at 5 uM after 48 hrs by Annexin-V and dead cell assay (reference value: 96.75%); type: functional
HCT-116 [10] = experiment: Induction of apoptosis in human HCT116 cells assessed as early apoptotic cells at 1 uM after 48 hrs by Annexin-V and dead cell assay (reference value: 1.70%); type: functional
HCT-116 [11] = experiment: Induction of apoptosis in human HCT116 cells assessed as early apoptotic cells at 10 uM after 48 hrs by Annexin-V and dead cell assay (reference value: 1.70%); type: functional
HCT-116 [12] = experiment: Induction of apoptosis in human HCT116 cells assessed as late apoptotic cells at 10 uM after 48 hrs by Annexin-V and dead cell assay (reference value: 1.45%); type: functional
HCT-116 [13] = experiment: Induction of apoptosis in human HCT116 cells assessed as p53 protein level at 1 uM after 48 hrs by Western blot method relative to beta-actin; type: functional
HCT-116 [14] = experiment: Induction of apoptosis in human HCT116 cells assessed as in p53 protein level at 2.5 uM after 48 hrs by Western blot method relative to beta-actin; type: functional
HCT-116 [15] = experiment: Induction of apoptosis in human HCT116 cells assessed as cyclin E protein level at 2.5 uM after 48 hrs by Western blot method relative to beta-actin; type: functional
HCT-116 [16] = experiment: Induction of apoptosis in human HCT116 cells assessed as CDK2 protein level at 1 uM after 48 hrs by Western blot method relative to beta-actin; type: functional
HCT-116 [17] = experiment: Induction of apoptosis in human HCT116 cells assessed as Bcl-2 protein level at 1 uM after 48 hrs by Western blot method relative to beta-actin; type: functional
HT-29 [18] = experiment: Induction of apoptosis in human HT-29 cells assessed as p53 protein level at 1 uM after 48 hrs by Western blot method relative to beta-actin; type: functional
HT-29 [19] = experiment: Induction of apoptosis in human HT-29 cells assessed as in p53 protein level at 5 uM after 48 hrs by Western blot method relative to beta-actin; type: functional
HT-29 [20] = experiment: Induction of apoptosis in human HT-29 cells assessed as in p53 protein level at 10 uM after 48 hrs by Western blot method relative to beta-actin; type: functional
HT-29 [21] = experiment: Induction of apoptosis in human HT-29 cells assessed as in p21 protein level at 5 uM after 48 hrs by Western blot method relative to beta-actin; type: functional
HT-29 [22] = experiment: Induction of apoptosis in human HT-29 cells assessed as cyclin E protein level at 5 uM after 48 hrs by Western blot method relative to beta-actin; type: functional
HT-29 [23] = experiment: Induction of apoptosis in human HT-29 cells assessed as cyclin E protein level at 10 uM after 48 hrs by Western blot method relative to beta-actin; type: functional
HT-29 [24] = experiment: Induction of apoptosis in human HT-29 cells assessed as Bcl-2 protein level at 2.5 uM after 48 hrs by Western blot method relative to beta-actin; type: functional
HT-29 [25] = experiment: Induction of apoptosis in human HT-29 cells assessed as cleaved caspase-3 protein level at 1 uM after 48 hrs by Western blot method relative to caspase-3; type: functional
HT-29 [26] = experiment: Induction of apoptosis in human HT-29 cells assessed as cleaved caspase-3 protein level at 2.5 uM after 48 hrs by Western blot method relative to caspase-3; type: functional
HT-29 [27] = experiment: Induction of apoptosis in human HT-29 cells assessed as cleaved caspase-3 protein level at 5 uM after 48 hrs by Western blot method relative to caspase-3; type: functional
HT-29 [28] = experiment: Induction of apoptosis in human HT-29 cells assessed as cleaved caspase-3 protein level at 10 uM after 48 hrs by Western blot method relative to caspase-3; type: functional
HT-29 [29] = experiment: Induction of apoptosis in human HT-29 cells assessed as caspase-3 protein level at 2.5 uM after 48 hrs by Western blot method relative to beta-actin; type: functional
HT-29 [30] = experiment: Induction of apoptosis in human HT-29 cells assessed as caspase-3 protein level at 5 uM after 48 hrs by Western blot method relative to beta-actin; type: functional
HT-29 [31] = experiment: Induction of apoptosis in human HT-29 cells assessed as caspase-3 protein level at 10 uM after 48 hrs by Western blot method relative to beta-actin; type: functional
HT-29 [32] = experiment: Induction of apoptosis in human HT-29 cells assessed as increase in caspase-3/7 activity at 1 to 10 uM measured after 48 hrs by Caspase-Glo 3/7 assay; type: functional, cell-based

## O=C(OC[C@H]1O[C@@H](OC(=O)c2cc(O)c(O)c(O)c2)[C@H](OC(=O)c2cc(O)c(O)c(O)c2)[C@@H](OC(=O)c2cc(O)c(O)c(O)c2)[C@@H]1OC(=O)c1cc(O)c(O)c(O)c1)c1cc(O)c(O)c(O)c1 [PENTAGALLOYL GLUCOSE]
HT-29 [1]
  Activity: Active
CCD-18Co
  Activity: Non-Toxic
HCT-116 [2]
  Activity: 37.5%
HCT-116 [3]
  Activity: 17.8%
HCT-116 [4]
  Activity: 11.8%
HCT-116 [5]
  Activity: 20.9%
HT-29 [6]
  Activity: 13.9%
HT-29 [7]
  Activity: 16.3%
HCT-116 [8]
  Activity: Dose-dependent effect
HCT-116 [9]
  Activity: 93.35%
HCT-116 [10]
  Activity: 1%
HCT-116 [11]
  Activity: 3.2%
HCT-116 [12]
  Activity: 6.1%
HCT-116 [13]
  fold change (FC): 1.8
HCT-116 [14]
  fold change (FC): 2.5
HCT-116 [15]
  fold change (FC): 1.6
HCT-116 [16]
  fold change (FC): 0.9
HCT-116 [17]
  fold change (FC): 1.3
HT-29 [18]
  fold change (FC): 0.7
HT-29 [19]
  fold change (FC): 3
HT-29 [20]
  fold change (FC): 6
HT-29 [21]
  fold change (FC): 1.8
HT-29 [22]
  fold change (FC): 0.8
HT-29 [23]
  fold change (FC): 0.1
HT-29 [24]
  fold change (FC): 0.3
HT-29 [25]
  fold change (FC): 3
HT-29 [26]
  fold change (FC): 6
HT-29 [27]
  fold change (FC): 7
HT-29 [28]
  fold change (FC): 5.7
HT-29 [29]
  fold change (FC): 4.7
HT-29 [30]
  fold change (FC): 5.9
HT-29 [31]
  fold change (FC): 5.8
HT-29 [32]
  Activity: Active
